Data reported in patent publication US20250195528A1, “DOSE REGIMEN OF VICASINABIN” (Hoffmann-La Roche Inc., priority 2022, published 2025).
Entries after “also recorded” stand apart in the source; their conditions may differ. Like-named read-outs stand apart in the source and are kept apart here.

Columns and labels:
CB2 receptor on B-cells = target: T1, CB2 receptor on B-cells (Homo sapiens, UniProt P34972); experiment: CB2 receptor target engagement on B-cells in blood of participants of Study BP40387; assay type: in vivo
T1 construct: B cells show a low but robust surface expression of CB2; endogenous in cells; host or cells: B cells in human whole blood (healthy participants, diabetic patients)
Experimental: In the Phase I single ascending dose (SAD) and multiple ascending dose (MAD) study (BP40387), CB2R-TE was measured in blood from healthy participants that received single and multiple 0.75-300 mg doses of RO6868847. Based on clinical RO6868847 pharmacokinetics (PK) and pharmacodynamics (PD; measured by CB2R-TE) data and accounting for the difference between healthy and diabetics subjects, the lower end of the 0.75 mg to 300 mg-dose range is expected to achieve approximately up to half-maximum CB2R-TE, whereas the higher end of that dose range is predicted to achieve maximum CB2R-TE.
(§1) In example 2, target engagement of RO6868847 was assessed on circulating B-cells from whole blood samples utilizing a newly developed exploratory flow cytometry assay to monitor RO6868847-induced CB2 receptor internalization on B-cells. […] Upon treatment discontinuation CB2 receptor surface expression returned to baseline approximately within 1 week. Target engagement appeared to reach a plateau at doses of 100 mg RO6868847 with only marginal increases at higher doses of RO6868847. In example 2, pro-inflammatory cytokine production was induced by ex vivo stimulation with LPS in freshly obtained whole blood samples, to measure downstream markers of RO6868847-mediated CB2 receptor internalization and explore its pharmacological profile. Serum levels of TNF-α, G-CSF, IL-1β, and […], of participants in Study BP40387 were assessed to investigate the changes of these cytokines in the presence of repeated dose administration of up to 300 mg RO6868847 once-daily for 14 days. […] It should be noted that the IL1-β analysis was negatively affected by a substantial proportion of baseline data, not being reportable (see FIG. 8), especially at the highest tested doses of 300 mg of RO6868847. Substantial variability in these measurements was observed. However, this was expected and no dedicated predefined statistical analysis was performed since cohort sizes were small for this exploratory assessment.

human CB2 = target: T2, human CB2 (Homo sapiens, UniProt P34972); experiment: Forskolin-stimulated cAMP inhibition in stably transfected CHO cells; assay type: cell-based; conditions: for Emax: CHO, normalized to 10 μM CP55′940; for IC50: IC50 ± SE (nM), CHO cells
T2 construct: expressed in transfected cells; host or cells: CHO cells
Description: (§2) Inhibition of cAMP accumulation in Chinese hamster ovary cells stably expressing recombinant CB2 was used to determine the functional potency of RO6868847 for different CB2 species and the selectivity over the closely related CB1.

rat CB2 = target: T3, rat CB2 (Rattus norvegicus, UniProt Q9QZN9); experiment: as above; assay type: cell-based
T3 construct: expressed in transfected cells; host or cells: CHO cells
T3 sequence (Q9QZN9 1-360): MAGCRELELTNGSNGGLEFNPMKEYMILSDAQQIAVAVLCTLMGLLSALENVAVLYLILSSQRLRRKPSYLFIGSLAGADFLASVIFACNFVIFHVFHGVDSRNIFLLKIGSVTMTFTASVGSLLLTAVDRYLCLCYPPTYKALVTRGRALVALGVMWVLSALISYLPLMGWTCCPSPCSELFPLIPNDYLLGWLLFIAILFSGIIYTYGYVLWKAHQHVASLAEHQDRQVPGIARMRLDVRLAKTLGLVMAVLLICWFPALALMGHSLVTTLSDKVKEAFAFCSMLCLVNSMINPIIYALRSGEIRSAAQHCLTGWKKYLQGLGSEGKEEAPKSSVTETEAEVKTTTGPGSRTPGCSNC
Description: as §2

[1] = Study BP40387 Part 1 (SAD) pharmacokinetics, healthy participants; assay type: in vivo, human; conditions: for Tmax / half-life / AUC / Cmax: both sexes, human, plasma
Experimental: In Part 1 (SAD) of Study BP40387, in the fasted state, RO6868847 was overall rapidly absorbed; however, the Tmax appeared to shift with increasing dose. Individual Tmax ranged between 1 to 6 hours at 100 mg and 300 mg RO6868847.

human CB1 = human CB1 (Homo sapiens, UniProt P21554); experiment: Human CB1 cAMP assay; assay type: cell-based
Description: as §2

[2] = Study BP40387 Part 2 (FE) food effect on pharmacokinetics; assay type: in vivo, human; conditions: for Tmax: both sexes, human, plasma, oral, 100 mg single dose, read-out: Median Tmax
Description: In Part 2 (FE) of Study BP40387, consistent with delayed gastric emptying due to an extended meal, the time to reach peak plasma concentration (Tmax) was slightly longer following dosing after a high fat, high calorie breakfast. […] Single Dose Urine Pharmacokinetics

[3] = system: LPS-induced cytokine production in whole blood; experiment: Ex vivo LPS whole blood challenge in participants of Study BP40387 (MAD); parameters: species or system human
Experimental: In addition to the CB2R-TE whole blood assay, an in vitro LPS whole blood challenge assay was applied using blood from healthy participants that received multiple 300 mg doses of RO6868847 6 in the MAD study.
as §1

[4] = single oral 0.75 mg, fasted, geo mean
[5] = single oral 3.0 mg, fasted, geo mean
[6] = single oral 10 mg, fasted, geo mean
[7] = single oral 30 mg, fasted, geo mean
[8] = single oral 100 mg, fasted, geo mean
[9] = single oral 300 mg, fasted, geo mean
[10] = steady-state, up to 300 mg once-daily for 14 days

T2 sequence (P34972 whole entry): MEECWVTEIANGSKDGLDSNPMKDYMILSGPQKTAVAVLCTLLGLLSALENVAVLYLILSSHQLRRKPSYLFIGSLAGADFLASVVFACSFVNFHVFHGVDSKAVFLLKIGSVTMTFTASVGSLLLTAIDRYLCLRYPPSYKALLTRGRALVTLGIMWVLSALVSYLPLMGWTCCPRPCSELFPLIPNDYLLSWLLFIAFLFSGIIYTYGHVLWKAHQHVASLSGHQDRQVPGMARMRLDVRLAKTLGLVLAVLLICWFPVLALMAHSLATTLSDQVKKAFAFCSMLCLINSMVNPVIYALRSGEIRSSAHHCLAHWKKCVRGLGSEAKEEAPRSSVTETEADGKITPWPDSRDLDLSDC
T1 sequence (P34972 whole entry): as above
Chain of human CB1 (P21554 whole entry): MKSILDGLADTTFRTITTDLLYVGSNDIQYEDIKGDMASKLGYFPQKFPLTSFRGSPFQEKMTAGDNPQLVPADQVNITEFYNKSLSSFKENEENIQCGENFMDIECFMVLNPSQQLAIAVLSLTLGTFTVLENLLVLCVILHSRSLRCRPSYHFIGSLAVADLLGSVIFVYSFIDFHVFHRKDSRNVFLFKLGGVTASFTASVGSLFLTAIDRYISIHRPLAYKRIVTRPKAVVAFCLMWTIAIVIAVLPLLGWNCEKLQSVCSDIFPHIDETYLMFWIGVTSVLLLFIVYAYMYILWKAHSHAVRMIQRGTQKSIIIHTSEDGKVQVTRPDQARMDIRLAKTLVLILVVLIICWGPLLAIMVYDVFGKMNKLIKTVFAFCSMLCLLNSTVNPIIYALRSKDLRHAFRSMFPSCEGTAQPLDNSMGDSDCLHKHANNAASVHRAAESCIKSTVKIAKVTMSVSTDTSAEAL

Cn1nnnc1Cn1nnc2c(N3CC[C@H](O)C3)nc(C(C)(C)C)nc21 [RO6868847, (3S)-1-[5-tert-butyl-3-[(1-methyltetrazol-5-yl)methyl]triazolo[4,5-d]pyrimidin-7-yl]pyrrolidin-3-ol]
time for CB2 receptor surface expression to return to baseline (CB2 receptor on B-cells; after treatment discontinuation): ≤ 1 week | dose at which target engagement reaches a plateau (CB2 receptor on B-cells; multiple dose): 100 mg | CB2 receptor target engagement on B-cells in blood (CB2 receptor on B-cells; single and multiple oral doses up to 300 mg): reversible, dose-dependent and sustained; also recorded: dose-dependent, long-lasting, but reversible | agonist character at human CB2 (human CB2): potent, full agonist | Emax (human CB2; Human): 103% | Emax (human CB2; second row printed 'Human'): 101% | IC50 (human CB2; Human, four independent experiments): 2.81 ± 0.28 nM | IC50 (human CB2; second row printed 'Human'): 2.6 ± 0.14 nM | IC50 (rat CB2): 0.58 ± 0.04 nM | Emax (rat CB2; CHO, Rats, normalized to 10 μM CP55′940): 94.7% | Tmax ([1]; oral, Study BP40387, fasted conditions, across doses, read-out: median Tmax): 1 to 4 h | Tmax ([1]; oral, single dose 100 mg and 300 mg, fasted, read-out: Individual Tmax): 1 to 6 h | half-life ([1]; oral, single dose, range across doses, read-out: apparent terminal elimination half-life): 6.95 to 18.5 h | Tmax ([1]; po, 0.75 mg, single oral 0.75 mg, fasted, median, read-out: Tmax): 1 h | Tmax ([1]; po, 3 mg, single oral 3.0 mg, fasted, median, read-out: Tmax): 1 h | Tmax ([1]; po, 10 mg, single oral 10 mg, fasted, median, read-out: Tmax): 1.75 h | Tmax ([1]; po, 30 mg, single oral 30 mg, fasted, median, read-out: Tmax): 1.5 h | Tmax ([1]; po, 100 mg, single oral 100 mg, fasted, median, read-out: Tmax): 1.75 h | Tmax ([1]; po, 300 mg, single oral 300 mg, fasted, median, read-out: Tmax): 3 h | AUC [1, 4]: 112 ng·h/mL | Cmax [1, 4]: 9.92 ng/mL | half-life ([1]; single oral 0.75 mg, fasted, geo mean, read-out: t1/2 (converted)): 6.89 h | AUC [1, 5]: 435 ng·h/mL | Cmax [1, 5]: 40 ng/mL | half-life ([1]; single oral 3.0 mg, fasted, geo mean, read-out: t1/2 (converted)): 7.99 h | AUC [1, 6]: 972 ng·h/mL | Cmax [1, 6]: 111 ng/mL | half-life ([1]; single oral 10 mg, fasted, geo mean, read-out: t1/2 (converted)): 6.95 h | AUC [1, 7]: 3530 ng·h/mL | Cmax [1, 7]: 355 ng/mL | half-life ([1]; single oral 30 mg, fasted, geo mean, read-out: t1/2 (converted)): 6.97 h | AUC [1, 8]: 12500 ng·h/mL | Cmax [1, 8]: 1120 ng/mL | half-life ([1]; single oral 100 mg, fasted, geo mean, read-out: t1/2 (converted)): 14.6 h | AUC [1, 9]: 31400 ng·h/mL | Cmax [1, 9]: 2500 ng/mL | half-life ([1]; single oral 300 mg, fasted, geo mean, read-out: t1/2 (converted)): 18.5 h | dose-proportionality of Cmax and AUC ([1]; doses beyond 100 mg): slightly less than dose-proportional | dose-proportionality of Cmax and AUC ([1]; up to 100 mg): no pronounced deviations from dose-proportionality; also recorded: approximately dose-proportionally | EC50 (human CB1): > 10000 nM | IC50 (human CB1): > 10000 nM | CB1/CB2 Ratio (functional selectivity) (human CB1; CB1 EC50 over CB2 EC50): >3600 fold | receptor activation or inhibition (human CB1; highest concentration of 10 μM): no receptor activation or inhibition | effect of food on AUCInf ([2]; 100 mg, fed vs fasted): increased only marginally | effect of food on Cmax ([2]; 100 mg, fed vs fasted): remained unaffected by food | Tmax ([2]; 100 mg, fasted state): 3 h | Tmax ([2]; 100 mg, fed state (high fat, high calorie breakfast)): 4 h | effect of food on the pharmacokinetics ([2]; overall): no relevant effect | LPS-induced cytokine release / pro-inflammatory cytokine production ([3]; multiple doses, MAD): appeared to attenuate; also recorded: attenuation of LPS-induced cytokine release was observed only at the higher end of the dose range | IFN-γ level after ex vivo LPS vs baseline [3, 10]: did not show any detectable trend | TNF-α, G-CSF and IL1-β levels after ex vivo LPS vs baseline [3, 10]: concentration-dependent effect
